Series [1] is described as follows: Dissolution rate test in Wood apparatus, amorphous NSF. It is filed as physicochemical. Conditions: for Dissolution Rate Constants: 150 mg tablets, 37° C., 50 rpm; for Difference in dissolution rate between dissolution media: pH 1.2 versus pH 6.8; for Dissolution rate as compared to the neutral DSV: FIGS. 4A-4I, different pH values. The protocol: The dissolution rate tests were performed in aqueous media, in a Wood apparatus with 150 mg tablets at 37° C. and 50 rpm in different dissolution media, as shown in Tables 2 and 3.

Series [2] is described as follows: Comparative dissolution profiles of five solid phases. It is filed as physicochemical. Further details: Dissolution rate constant k: unit not given here. Conditions: for Dissolution rate relative to the other shown phases: pH 1.2, 4.5 and 6.8; for Dissolution rate constant k: 37° C., 50 rpm. As for the experimental part:
FIG. 14. Dissolution profile in HCl solution (pH 1.2, 37° C., 50 rpm, n=3, ±SD) of the new crystalline solid phase of desvenlafaxine-3,4-dihydroxybenzoic acid (crystalline DSV:3,4-DHB), and comparison with the new amorphous solid phase of desvenlafaxine-3,4-dihydroxybenzoic acid (amorphous DSV:3,4-DHB), the new crystalline solid phase of desvenlafaxine-2,4-dihydroxybenzoic acid (crystalline DSV:2,4-DHB), desvenlafaxine (DSV), and desvenlafaxine succinate (DSV succinate). FIG. 15. Dissolution profile in acetate buffer (pH 4.5, 37° C., 50 rpm, n=3, ±SD) of the new crystalline solid phase of desvenlafaxine-3,4-dihidroxibenzoic acid (crystalline DSV:3,4-DHB), and comparison with the new amorphous solid phase of desvenlafaxine-3,4-dihydroxybenzoic acid (amorphous DSV:3,4-DHB), the new crystalline solid phase of desvenlafaxine-2,4-dihydroxybenzoic acid (crystalline DSV:2,4-DHB), desvenlafaxine (DSV), and desvenlafaxine succinate (DSV succinate). FIG. 16. Dissolution profile in phosphate buffer (pH 6.8, 37° C., 50 rpm, n=3, ±SD) of the new crystalline solid phase of desvenlafaxine-3,4-dihydroxybenzoic acid (crystalline DSV:3,4-DHB), and comparison with the new amorphous solid phase of desvenlafaxine-3,4-dihydroxybenzoic acid (amorphous DSV:3,4-DHB), the new crystalline solid phase of desvenlafaxine-2,4-dihydroxybenzoic acid (crystalline DSV:2,4-DHB), desvenlafaxine (DSV), and desvenlafaxine succinate (DSV succinate). A comparative test was carried out for the dissolution profiles at pH 1.2, 4.5 and 6.8 for the new crystalline phase DSV:3,4-DHB with respect to the amorphous NSF with the same co-former, the crystalline NSF with 2,4-dihydroxybenzoic acid, as well as desvenlafaxine base and the commercial salt (desvenlafaxine succinate).

The nature of series [3]: Indicative physical stability test (X-ray powder diffraction). It is filed as physicochemical. The following applies: 40° C., 75% humidity, 30 days. As for the experimental part:
The amorphous NSF obtained from DSV:3-HB, DSV:3,4-DHB and DSV:3,4,5-THB were subjected to physical stability tests, wherein the NSF were subjected to temperatures of 45 and 50° C. in dry conditions (no humidity), and to 40° C., 75% humidity for 30 days.

Series [4] is described as follows: Thermogravimetric analysis (TGA/DSC) of crystalline NSF. It is filed as physicochemical. The protocol:
The compound was observed as stable until 190° C., the temperature at which decomposition starts to occur.
The crystalline NSF of DSV:2,4-DHB was also characterized by X-ray powder diffraction (see FIG. 10), as well as thermogravimetric analysis (TGA/DSC) (see FIG. 11).

A short description of series [5]: Intrinsic dissolution of the crystalline NSF DSV:3,4-DHB. It is filed as physicochemical. The protocol:
Dissolution profiles were assessed for the crystalline NSF of DSV:3,4-DHB. The rate constant values are grouped in Table 6.

Series [6] is classed as physicochemical. From the text: Solubility tests could not be determined because the amorphous NSF obtained are very soluble and a large amount is required to saturate the solution.

Structures are written as SMILES.

Turning to `CN(C)CC(c1ccc(O)cc1)C1(O)CCCCC1` (racemic) [DSV, (±)-1-[2-(dimethylamino)-1-(4-hydroxyphenyl)ethyl]cyclohexanol, reference compound], the “Dissolution Rate Constants” value in series [1] (pH 1.2) is recorded as 6.9 mg/cm^2 · min; in series [1] (pH 4.5) it was 1.2 mg/cm^2 · min; in series [1] (pH 6.8), 0.5 mg/cm^2 · min; in series [1] (water) it was 0.0 mg/cm^2 · min. Besides, in series [1], the “Difference in dissolution rate between dissolution media” value is 14 times higher.
Consider `CN(C)CC(c1ccc(O)cc1)C1(O)CCCCC1.O=C(O)c1ccc(O)c(O)c1` (centres unmarked) [Amorphous DSV:3,4-DHB, desvenlafaxine-3,4-dihydroxybenzoic acid], for which, in series [1], the “Dissolution rate as compared to the neutral DSV” value is “higher dissolution rate”. Moreover, the “Dissolution Rate Constants” value amounted to 4.4 mg/cm^2 · min in series [1] (pH 1.2), 5.0 mg/cm^2 · min in series [1] (pH 4.5), 5.7 mg/cm^2 · min in series [1] (pH 6.8) and 2.3 mg/cm^2 · min in series [1] (water). Also, in series [1], the “Difference in dissolution rate between dissolution media” value was “lower or almost null difference”. Further, the “Quotient (kNSF/kDSV)” value in series [2] (pH 1.2) is recorded as 5.0; in series [2] (pH 4.5), 18.4; in series [2] (pH 6.8), 17.0. In addition, the “Dissolution rate relative to the other shown phases” value in series [2] was “the higher dissolution rate”. Further, the “Dissolution rate constant k” value was 6.69 in series [2] (pH 1.2, HCl solution); 6.81 in series [2] (pH 4.5, acetate buffer); 5.45 in series [2] (pH 6.8, phosphate buffer). The Physical stability result in series [3] is reported as “only possible to characterize”.
For the molecule `CN(C)CC(c1ccc(O)cc1)C1(O)CCCCC1.O=C(O)c1ccc(O)cc1O` (centres unmarked) [Crystalline DSV:2,4-DHB, desvenlafaxine-2,4-dihydroxybenzoic acid], the “Quotient (kNSF/kDSV)” value in series [2] (pH 1.2) is 0.79; in series [2] (pH 4.5), 0.94; in series [2] (pH 6.8), 0.71. Further, in series [2], the “Dissolution rate relative to the other shown phases” value is “lower dissolution rate than the commercial salt (succinate) and any of the other shown phases”. Moreover, the “Dissolution rate constant k” value in series [2] (pH 1.2, HCl solution) was determined as 1.07; in series [2] (pH 4.5, acetate buffer) it was 0.35; in series [2] (pH 6.8, phosphate buffer), 0.23. Further, the “Stable until, temperature at which decomposition starts” value in series [4] was “about 150 °C”.
Take `CN(C)CC(c1ccc(O)cc1)C1(O)CCCCC1.O=C(O)c1ccc(O)c(O)c1` (centres unmarked) [Crystalline DSV:3,4-DHB, 3,4-dihydroxybenzoate salt of anhydrous desvenlafaxine]: the “Intrinsic dissolution rate constant k” value worked out at 2.48 mg/cm2 · min in series [5] (pH 1.2), 2.19 mg/cm2 · min in series [5] (pH 4.5) and 1.43 mg/cm2 · min in series [5] (pH 6.8). In addition, the “Quotient (kNSF/kDSV)” value in series [2] (pH 1.2) was found to be 1.8; in series [2] (pH 4.5) it was 5.9; in series [2] (pH 6.8) it was 4.8. Besides, the “Dissolution rate constant k” value in series [2] (pH 1.2, HCl solution) is 2.47; in series [2] (pH 4.5, acetate buffer), 2.19; in series [2] (pH 6.8, phosphate buffer) it was 1.54. In series [4], the “Stable until, temperature at which decomposition starts” value worked out at 190 °C.
On to `CN(C)CC(c1ccc(O)cc1)C1(O)CCCCC1` (centres unmarked) [DSV-Succinate, desvenlafaxine succinate, reference compound], for which the “Quotient (kNSF/kDSV)” value came out at 2.1 in series [2] (pH 1.2), 6.9 in series [2] (pH 4.5) and 10.0 in series [2] (pH 6.8).
Consider `CN(C)CC(c1ccc(O)cc1)C1(O)CCCCC1.O=C(O)c1cc(O)c(O)c(O)c1` (centres unmarked) [DSV:3,4,5-THB, desvenlafaxine-3,4,5-trihydroxybenzoic acid], for which the “Dissolution rate as compared to the neutral DSV” value in series [1] is recorded as “higher dissolution rate”. For the same molecule, the “Dissolution Rate Constants” value in series [1] (pH 1.2) was found to be 5.4 mg/cm^2 · min; in series [1] (pH 4.5) it was 6.1 mg/cm^2 · min; in series [1] (pH 6.8), 9.0 mg/cm^2 · min; in series [1] (water) it was 1.6 mg/cm^2 · min. Also, the Solubility result in series [6] is recorded as “the solution did not become saturated”.
Take `CN(C)CC(c1ccc(O)cc1)C1(O)CCCCC1.O=C(O)c1cccc(O)c1` (centres unmarked) [DSV:3-HB, desvenlafaxine-3-hydroxybenzoic acid]: the “Dissolution Rate Constants” value in series [1] (pH 1.2) is 5.8 mg/cm^2 · min; in series [1] (pH 4.5), 6.1 mg/cm^2 · min; in series [1] (pH 6.8), 5.4 mg/cm^2 · min; in series [1] (water) it was 3.8 mg/cm^2 · min.

The values are drawn from US10207982B2, “Solid forms of desvenlafaxine” (ALPARIS, S.A. DE C.V., priority 2016, dated 2019).
